Test system: 292921-168-R-J2-PDC complex spheroid viability
Test: Anticancer human tumor 292921-168-R-J2-PDC patient-derived pancreatic carcinoma cell line growth inhibition
Details: for IC50: curve of first compound; for viability, T/C: stronger effect = lower value
In short: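 Drug combinations with the LSD1 inhibitor iadademstat tested on tumor cells co-cultured as spheroids with endothelial cells and mesenchymal stem cells. Concentrations descended in half-log increments from clinical Cmax or 10 microM.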

[1] = second compound 0.1 µM, first compound 0.0316 µM
[2] = second compound 0.1 µM, first compound 0.1 µM
[3] = second compound 0.1 µM, first compound 0.316 µM
[4] = second compound 0.1 µM, first compound 1 µM
[5] = second compound 0.1 µM, first compound 3.16 µM
[6] = second compound 0.1 µM, first compound 10 µM
[7] = second compound 0.316 µM, first compound 0.0316 µM
[8] = second compound 0.316 µM, first compound 0.1 µM
[9] = second compound 0.316 µM, first compound 0.316 µM
[10] = second compound 0.316 µM, first compound 1 µM
[11] = second compound 0.316 µM, first compound 3.16 µM
[12] = second compound 0.316 µM, first compound 10 µM
[13] = second compound 1 µM, first compound 0.0316 µM
[14] = second compound 1 µM, first compound 0.1 µM
[15] = second compound 1 µM, first compound 0.316 µM
[16] = second compound 1 µM, first compound 1 µM
[17] = second compound 1 µM, first compound 3.16 µM
[18] = second compound 1 µM, first compound 10 µM
[19] = second compound 3.16 µM, first compound 0.0316 µM
[20] = second compound 3.16 µM, first compound 0.1 µM
[21] = second compound 3.16 µM, first compound 0.316 µM
[22] = second compound 3.16 µM, first compound 1 µM
[23] = second compound 3.16 µM, first compound 3.16 µM
[24] = second compound 3.16 µM, first compound 10 µM
[25] = second compound 10 µM, first compound 0.0316 µM
[26] = second compound 10 µM, first compound 0.1 µM
[27] = second compound 10 µM, first compound 0.316 µM
[28] = second compound 10 µM, first compound 1 µM
[29] = second compound 10 µM, first compound 3.16 µM
[30] = second compound 10 µM, first compound 10 µM
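Further: seven day compound exposure before luminescent viability read.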
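Wherever viability, T/C is given: 100% = DMSO vehicle control wells.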

| SMILES | IC50 (second compound 0.1 µM) | IC50 (second compound 0.316 µM) | IC50 (second compound 1 µM) | IC50 (second compound 3.16 µM) | IC50 (second compound 10 µM) | viability, T/C [1] | viability, T/C [2] | viability, T/C [3] | viability, T/C [4] | viability, T/C [7] | viability, T/C [8] | viability, T/C [9] | viability, T/C [10] | viability, T/C [13] | viability, T/C [14] | viability, T/C [15] | viability, T/C [16] | viability, T/C [19] | viability, T/C [20] | viability, T/C [21] | further results |
| --- | --- | --- | --- | --- | --- | --- | --- | --- | --- | --- | --- | --- | --- | --- | --- | --- | --- | --- | --- | --- | --- |
| CC(C)c1c(-c2ccccc2)nc2c(C#N)c[nH]n2c1=O + NC1CCC(NC2CC2c2ccccc2)CC1 | > 10000 nM | > 10000 nM | > 10000 nM | 9720 nM | 1680 nM | 63.4% | 67.2% | 59.7% | 70% | 63.1% | 60.1% | 63.6% | 64.2% | 52.7% | 55.4% | 54.2% | 57.5% | 55.7% | 55.3% | 52.8% | viability, T/C [5]: 61.1%; viability, T/C [6]: 57%; viability, T/C [11]: 64.2%; viability, T/C [12]: 51.3%; viability, T/C [17]: 57.4%; viability, T/C [18]: 51.6%; viability, T/C [22]: 56.1%; viability, T/C [23]: 49%; viability, T/C [24]: 49.9%; viability, T/C [25]: 52.9%; viability, T/C [26]: 53.8%; viability, T/C [27]: 53.2%; viability, T/C [28]: 54.6%; viability, T/C [29]: 45.6%; viability, T/C [30]: 40% |
| CC1COCCN1c1cc(-c2ccnn2C)c2ccnc(-c3ccn[nH]3)c2n1 (stereo not given) + NC1CCC(NC2CC2c2ccccc2)CC1 | < 3.16 nM | < 3.16 nM | < 3.16 nM | < 3.16 nM | < 3.16 nM | 13% | 16.4% | 18.4% | 19.3% | 12% | 15.7% | 16.9% | 18.3% | 13.5% | 14.2% | 14.8% | 17.2% | 12.2% | 13.5% | 15.3% | viability, T/C (second compound 0.1 µM, first compound 0.00316 µM): 14.1%; viability, T/C (second compound 0.1 µM, first compound 0.01 µM): 12.3%; viability, T/C (second compound 0.316 µM, first compound 0.00316 µM): 15.7%; viability, T/C (second compound 0.316 µM, first compound 0.01 µM): 14.8%; viability, T/C (second compound 1 µM, first compound 0.00316 µM): 14.4%; viability, T/C (second compound 1 µM, first compound 0.01 µM): 15.1%; viability, T/C (second compound 3.16 µM, first compound 0.00316 µM): 15.7%; viability, T/C (second compound 3.16 µM, first compound 0.01 µM): 15.5%; viability, T/C [22]: 16%; viability, T/C (second compound 10 µM, first compound 0.00316 µM): 13.7%; viability, T/C (second compound 10 µM, first compound 0.01 µM): 14%; viability, T/C [25]: 12.3%; viability, T/C [26]: 12.5%; viability, T/C [27]: 14.2%; viability, T/C [28]: 17.3% |
| COc1ccc([C@@H](O)c2cc(-c3ncnc4cc(N5CCOCC5)ccc34)c(F)cc2Cl)nn1 + NC1CCC(NC2CC2c2ccccc2)CC1 | 205 nM | 191 nM | 102 nM | 101 nM | 35 nM | 61.8% | 61.3% | 42.7% | 30.4% | 61.1% | 57.7% | 44.4% | 26.2% | 59.9% | 50.4% | 38.1% | 24.9% | 50% | 53.7% | 40.4% | viability, T/C [5]: 19.9%; viability, T/C [6]: 11.7%; viability, T/C [11]: 17.1%; viability, T/C [12]: 11.8%; viability, T/C [17]: 18.4%; viability, T/C [18]: 11.2%; viability, T/C [22]: 27.1%; viability, T/C [23]: 16.4%; viability, T/C [24]: 10.7%; viability, T/C [25]: 48.6%; viability, T/C [26]: 50%; viability, T/C [27]: 36.2%; viability, T/C [28]: 28.2%; viability, T/C [29]: 18.1%; viability, T/C [30]: 11.6% |
